Where a SMILES comes first, the peptide text is derived from it. [ ]: non-standard residue; d: D form. The star is where a group is joined. Nle = CCCC[C@H](N)C(=O)O; Nva = CCC[C@H](N)C(=O)O; Cbz = O=C(OCc1ccccc1)*

What all share (assay type): cell-based, human
The test system of series [1] is EZH2 and SUZ12 protein levels in MCF-7 cells. The series is described as follows: Proteosome inhibitor rescue of 3-deazaneplanocin-induced PRC2 depletion (Western blot). The settings on record: 3-deazaneplanocin 18 h then MG132 (5 μM), LLNL (50 μM) or MG115 (20 μM) for 8 h. The protocol: FIG. 1C depicts the effect of 3-deazaneplanocin in the presence of proteosome inhibitors on EZH2 and SUZ12 protein levels. MCF-7 cells were treated with 3-deazaneplanocin for 18 h, followed by the addition of proteosome inhibitor MG132 (5 μM), LLNL (50 μM), MG115 (20 μM) […] for 8 h. Cells were harvested for Western blot analysis of EZH2 and SUZ12.
Cell pellets were first lysed in RadioImmuno Precipitation Assay (RIPA) buffer, consisting of an aqueous solution of 25 mM Tris-HCl pH 7.6, 150 mM NaCl, 1% Nonidet-P 40 (NP-40), 1% sodium deoxycholate and 0.1% sodium dodecylsulfate (SDS), before further sonicated using a tissue homogeniser to release all the proteins. Equal amounts of protein were separated on SDS-polyacrylamide gels and transferred to polyvinylidene difluoride (PVDF) membranes. The blots were probed with antibodies against: EED (07-368), SUZ12 (07-379), SUV39H1 (07-550), BMI1 (05-637), tri-methylated H3-K27 (07-449), tri-methylated H3-K9 (07-442) and Acetyl-Histone H3 (06-599), and were purchased from Upstate. EZH2 (AC22) and Histone H3 (3H1) were from Cell Signaling. Antibodies against DNA methyl-transferases DNMT1 and DNMT3B were purchased from Alexis Biochemicals.
It has previously been reported that the stability of PRC2 proteins is regulated through proteosome-mediated mechanism. It was therefore tested whether the depletion of PRC2 proteins by 3-deazaneplanocin results from the protein degradation. MCF-7 cells were treated with 3-deazaneplanocin in the presence or absence of three individual proteosome inhibitors MG132, LLNL, and MG115 to test if these treatments would rescue 3-deazaneplanocin-induced PRC2 depletion.
(In general: A western blot detects proteins with antibodies after separation by electrophoresis.)

The next series deals with MCF-7 cells. The series can be described thus: Microarray gene expression analysis (Illumina BeadChip) in MCF-7 cells.
Series [2] concerns PRC2 target genes TGFBI, KRT17, FBXO32, ANXA8, DLX2. The series can be described thus: Real-time RT-PCR of representative PRC2 targets in MCF-7 cells.
Protocol: I: MCF-7 cells were untreated or treated with 3-deazaneplanocin (DZNep), 5-azacytidine (5-AzaC) or a combination of 5-azacytidine and trichostatin A (AZA+TSA), and RNA was isolated for gene expression analysis.
Cells were maintained in DMEM supplemented with 10% fetal bovine serum with glutamine, penicillin, and streptomycin. For drug treatment, cells were seeded the day before the drug treatment. Cells were treated with 5 μM 3-Deazaneplanocin A or 2 μM 5-aza-2′-deoxycytidine (5-AzaC; Sigma) for 72 hours and trichostatin A (TSA; Sigma) at 100 nM for 24 hours. For co-treatment of cells with 5-AzaC and TSA, 5-Aza was added for 48 hours and followed by TSA for 24 hours.
Total RNA was isolated from cell lines using Trizol (Invitrogen) and was converted to cDNA using an RNA Amplification kit (Ambion). […] Quantitative real-time PCR was performed on a PRISM 7900 sequenced detector (Applied Biosystems) using TaqMan probes (Applied Biosystems). Samples were normalized to the levels of 18S ribosomal RNA.
The array results were further confirmed by real-time RT-PCR for representative PRC2 targets.

As to `CCC[C@@H](C=O)NC(=O)[C@H](CC(C)C)NC(=O)[C@H](CC(C)C)NC(=O)OCc1ccccc1` [MG115] (Cbz-Leu-Leu-[Nva]-aldehyde), in series [1], the “downregulation of EZH2 and SUZ12 protein levels in response to 3-deazaneplanocin” value (“downregulation” for short) is “prevented the downregulation”. As for `CCCC[C@@H](C=O)NC(=O)[C@H](CC(C)C)NC(=O)[C@H](CC(C)C)NC(C)=O` [LLNL] (Ac-Leu-Leu-[Nle]-aldehyde), the “downregulation” value in series [1] is recorded as “prevented the downregulation”. Regarding `Nc1ncn([C@H]2C[C@H](O)[C@@H](CO)O2)c(=O)n1` [5-AzaC, 5-aza-2′-deoxycytidine, reference compound], the “reactivation of the 140 PRC2 targets in general, in comparison with 3-deazaneplanocin” value with MCF-7 cells (array, 5-AzaC 2 μM, TSA 100 nM) is “did not result in the significant reactivation”. In addition, the “induction of TGFBI, KRT17 and FBX032 (real-time RT-PCR)” value in series [2] is “not”. For the molecule `CC(C)C[C@@H](C=O)NC(=O)[C@H](CC(C)C)NC(=O)[C@H](CC(C)C)NC(=O)OCc1ccccc1` [MG132] (Cbz-Leu-Leu-Leu-aldehyde), the “downregulation” value in series [1] is reported as “prevented the downregulation”.

B1: SUZ12 siRNA: siRNA targeting SUZ12 mRNA; stem-loop RNA from oligonucleotides SEQ ID NO: 1 and 2 (nucleic acid)
chain 1: GATCCCCGTCGCAACGGACCAGTTAATTCAAGAGATTAACTGGTCCGTTGCGACTTTTTGGAAA
chain 2: TCGATTTCCAAAAAGTCGCAACGGACCAGTTGATCTCTTGAATTAACTGGTCCGTTGCGACGGG
modifications: expressed or natural sequence; the letters are possibly those of the target site
As for B1, the “number of genes upregulated ≧2-fold after siRNA treatment” value with MCF-7 cells (siRNA knockdown of PRC2 component) came to 572 genes.
